The target in experiment [1] is T1, human serotonin re-uptake transporter (hSERT) (Homo sapiens, UniProt P31645).
T1 construct: host or cells: HEK-293
In words: Inhibition of tritiated serotonin uptake into transfected HEK-293 cells. The class given is cell-based. The settings on record: HEK-293 cells expressing hSERT; 20 nM [3H] serotonin, 40 min, 37° C.; mean ± s.e.m. An excerpt:
HEK-293 cells stably expressing the human serotonin re-uptake transporter (hSERT) were obtained from R. Blakely, Vanderbilt University, USA. The cells were routinely grown in Dulbecco's Modified Eagle's Medium (Bioconcept) containing 10% fetal calf serum, penicillin, streptomycin, L-glutamine and the antibiotic G418 and passaged by trypsinisation. On the day of assay, cells from 80% confluent flasks were harvested by gentle washing with warm phosphate buffered saline (PBS). […] Serotonin uptake into the cells was determined by addition of radio-labelled [^3H] serotonin (GE Healthcare) at a concentration of 20 nM, and incubation for 40 minutes at 37° C. with gentle shaking. At the end of this time unincorporated label was removed by filtration though Unifilter 96 GF/B plates (Perkin Elmer) using a Tomtec Mach III M cell harvester. The incorporated serotonin retained on the plates was quantified by liquid scintillation counting using Microscint-40/Topcount (Perkin Elmer).

The test system of experiment [2] is mouse. In words: Marble burying test. The format is in vivo. The settings on record: mouse; for NUMBER OF MARBLES COVERED BY SAWDUST % change from control / NUMBER OF MARBLES COVERED BY SAWDUST mean ± s.e.m.: Table 5. On the procedure:
The method applied here follows that described by Broekkamp et al., supra. Mice (n=15 per treatment group) were individually placed in transparent plastic cages (33×21×18 cm) with 5 cm of sawdust on the floor and 25 marbles (diameter 1 cm) grouped in the centre of the cage. A second, up-turned, cage served as a lid. The number of marbles covered by sawdust (by at least two-thirds) was counted at the end of the 30-minute test period. Tests were performed by investigators blind to the drug treatment protocol.
Prior to testing, all test cages and marbles were “impregnated” by leaving 10 naive mice in each cage for 15 minutes. […]
Data were analysed by comparing treated groups with vehicle control using unpaired Student's t-tests.

Experiment [3] addresses T2, human dopamine transporter (hDAT) (Homo sapiens, UniProt Q01959).
T2 construct: expressed in transfected cells; host or cells: CHO-Ki (so in the source)
In words: Inhibition of dopamine reuptake into transfected CHO-Ki/hDAT cells. The class given is cell-based. The settings on record: 50 nM [3H]Dopamine. The protocol:
CHO-Ki/hDAT cells expressing the human dopamine transporter (hDAT) were plated before the assay. Cells (2×10^5/ml) were incubated with carnosic acid and/or vehicle in modified Tris-HEPES buffer, pH 7.1, at 25° C. for 20 minutes before addition of 50 nM [^3H]Dopamine for 10 minutes. Specific signal was determined in the presence of 10 μM nomifensine (dopamine reuptake inhibitor). Cells were then solubilised with 1% SDS lysis buffer. Reduction of [^3H]Dopamine uptake by 50 per cent or more (≧50%) relative to vehicle controls indicated significant inhibitory activity.

For experiment [4], the system named is mouse. In words: Porsolt's forced swim test (FST). The class given is in vivo. On the procedure: Mice were individually placed in cylinders (24.5 cm height, 19.5 cm internal diameter) containing 13.5 cm depth of water (22±0.5° C.) for a period of 6 minutes, behavioural parameters of interest being analysed during the final 4 minutes of the test, since the first 2 minutes include vigorous activity. Six cylinders were placed in a Perspex box, thus enabling six mice to be tested simultaneously.
Automatic monitoring of swim tests was enabled through the use of VideoMot2 software (TSE Technical and Scientific Equipment GmbH, Bad Homburg, Germany). All to experiments were observed via a black and white CCD camera. The rest:locomotion and stop:start thresholds, as determined by setting parameters in the software programme, determine the number of pixels which must change for a movement to be registered, enabling the software to determine whether a mouse is swimming or resting. The parameters which are automatically recorded include: rest time and locomotion time (ms), % rest and % locomotion, distance travelled (cm), speed of travel (cm/s) and number of stops.
Data were analysed by comparing treated groups with the untreated control group using Fisher's PLSD (StatView, SAS Institute Inc., Cary, N.C., USA)

Experiment [5] concerns mouse. In words: Light dark box test. The format is in vivo. The settings on record: for NUMBER OF CROSSINGS % change from control: mouse. An excerpt:
The method, which detects anxiolytic activity, follows that described by Crawley, 1981 Pharmacol. Biochem. Behav., 15:695-699. Anxiolytics increase the time spent in the light compartment.
Animals were placed into the light compartment of a 2-compartment box with one half light and open (25×27×27 cm) and the other half dark and closed (20×27×27 cm). The time spent in each compartment as well as the number of times the animal crosses from one side to the other is scored during a 3-minute test. 15 mice were studied per group. The test was performed blind.
Carnosic acid was evaluated at 3 doses (100, 200, 400 mg/kg BW), administered by oral gavage (p.o.) 24, 5 and 1 hour before the test, and compared with a vehicle control group (corn oil). Carnosic acid was dissolved in corn oil (“vehicle”). Clobazam (32 mg/kg p.o.), administered 1 hour before the test, was used as reference substance. Mice in this group received additional administrations of vehicle at 24 and 5 hours before the test in order to maintain experimental blinding.

T2 sequence (Q01959 whole entry): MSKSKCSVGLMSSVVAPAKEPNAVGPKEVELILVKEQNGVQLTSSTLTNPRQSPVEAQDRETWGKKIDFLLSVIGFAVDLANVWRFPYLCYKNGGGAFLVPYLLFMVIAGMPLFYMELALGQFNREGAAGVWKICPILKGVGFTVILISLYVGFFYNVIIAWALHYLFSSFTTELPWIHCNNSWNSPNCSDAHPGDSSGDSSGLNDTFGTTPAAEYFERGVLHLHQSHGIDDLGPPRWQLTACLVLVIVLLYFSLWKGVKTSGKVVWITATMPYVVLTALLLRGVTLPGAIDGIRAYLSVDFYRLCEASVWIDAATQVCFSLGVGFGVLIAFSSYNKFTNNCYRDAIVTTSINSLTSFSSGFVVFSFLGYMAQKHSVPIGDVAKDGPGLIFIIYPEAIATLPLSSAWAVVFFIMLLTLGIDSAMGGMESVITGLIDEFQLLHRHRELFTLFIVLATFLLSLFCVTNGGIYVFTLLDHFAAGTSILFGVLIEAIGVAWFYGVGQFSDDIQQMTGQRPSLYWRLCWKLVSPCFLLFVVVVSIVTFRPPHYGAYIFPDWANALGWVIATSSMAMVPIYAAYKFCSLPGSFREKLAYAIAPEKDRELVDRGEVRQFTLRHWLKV
T1 sequence (P31645 whole entry): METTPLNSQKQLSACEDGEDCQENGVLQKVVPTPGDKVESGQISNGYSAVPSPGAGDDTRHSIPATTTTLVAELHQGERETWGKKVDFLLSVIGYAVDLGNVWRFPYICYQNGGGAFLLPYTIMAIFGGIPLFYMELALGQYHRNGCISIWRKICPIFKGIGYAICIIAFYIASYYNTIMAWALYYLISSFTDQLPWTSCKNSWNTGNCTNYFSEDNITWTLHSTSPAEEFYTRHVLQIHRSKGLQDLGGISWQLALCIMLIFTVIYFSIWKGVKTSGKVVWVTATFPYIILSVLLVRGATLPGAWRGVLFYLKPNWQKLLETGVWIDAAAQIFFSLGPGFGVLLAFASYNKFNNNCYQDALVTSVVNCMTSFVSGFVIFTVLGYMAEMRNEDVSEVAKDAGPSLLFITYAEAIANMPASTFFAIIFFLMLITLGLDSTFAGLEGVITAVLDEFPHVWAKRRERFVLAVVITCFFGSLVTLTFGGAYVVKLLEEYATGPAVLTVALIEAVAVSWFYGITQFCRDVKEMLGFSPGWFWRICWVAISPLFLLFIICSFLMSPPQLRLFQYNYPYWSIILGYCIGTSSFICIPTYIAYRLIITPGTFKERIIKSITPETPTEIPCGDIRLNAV

One may read the IC50 as the concentration that gives 50% inhibition. For the compound `CC(C)c1cc2c(c(O)c1O)[C@@]1(C(=O)O)CCCC(C)(C)[C@@H]1CC2` [Carnosic acid, carnosic acid], the IC50 in experiment [1] amounted to 36.4 ± 6.8 µM; in experiment [3] it was 15 µM. For the same compound, the results for the “NUMBER OF MARBLES COVERED BY SAWDUST % change from control” value in experiment [2] (3 mg/kg i.p. −30 min), in experiment [2] (10 mg/kg i.p. −30 min) and in experiment [2] (30 mg/kg i.p. −30 min) were −8%, −4% and −63%, respectively. For the same compound, the figures for the “NUMBER OF MARBLES COVERED BY SAWDUST mean ± s.e.m.” value in experiment [2] (3 mg/kg i.p. −30 min), in experiment [2] (10 mg/kg i.p. −30 min) and in experiment [2] (30 mg/kg i.p. −30 min) were 21.9 ± 1.3, 22.7 ± 0.5 and 8.7 ± 2.9, respectively. Besides, the “marble burying behaviour (in words)” value in experiment [2] (highest dose tested (30 mg/kg) i.p.) was “clearly and significantly reduced marble burying behaviour”. The “Duration of immobility (% change from control)” value in experiment [4] (10 mg/kg i.p., −30 min) is recorded as −29%; in experiment [4] (20 mg/kg i.p., −30 min) it was −30%; in experiment [4] (30 mg/kg i.p., −30 min), −29%; in experiment [4] (200 mg/kg p.o., −24, −5, −1 h), −38%. The “immobility behaviour (in words)” value in experiment [4] (all doses tested, i.p. and p.o. administration) is “significantly reduced immobility behaviour”. For the same compound, the “NUMBER OF CROSSINGS % change from control” value is listed as “+17%” in experiment [5] (100 mg/kg p.o. −24, −5, −1 h); −21% in experiment [5] (200 mg/kg p.o., −24, −5, −1 h); “+23%” in experiment [5] (400 mg/kg p.o. −24, −5, −1 h). Also, the “number of crossings (in words)” value in experiment [5] (mouse, 100, 200 and 400 mg/kg p.o.) is “did not affect”.

The values above are taken from US8748491B2, “Dietary and pharmaceutical compositions containing tricyclic diterpenes and their derivatives and their uses” (priority 2006, dated 2014).
